Assay results as given in ChEMBL document CHEMBL4814007, “Structure-based discovery of SIAIS001 as an oral bioavailability ALK degrader constructed from Alectinib” (Eur J Med Chem, 2021).
The source made the active and inactive calls. No cut-off for these calls is given here.

How the values were obtained:
[1] = Oral bioavailability in rat at 10 mg/kg; format: ADME, organism-based; conditions: in vivo
[2] = target: T1, Protein cereblon/ALK tyrosine kinase receptor (Homo sapiens, UniProt Q9UM73+Q96SW2); test: Protac activity at CRBN/ALK in human SR cells assessed as induction of ALK degradation at 0.05 to 500 nM by Western blot analysis relative to control; format: cell-based; conditions: dose 0.05-500 nM
Target sequence in this assay (Q96SW2 whole entry partner): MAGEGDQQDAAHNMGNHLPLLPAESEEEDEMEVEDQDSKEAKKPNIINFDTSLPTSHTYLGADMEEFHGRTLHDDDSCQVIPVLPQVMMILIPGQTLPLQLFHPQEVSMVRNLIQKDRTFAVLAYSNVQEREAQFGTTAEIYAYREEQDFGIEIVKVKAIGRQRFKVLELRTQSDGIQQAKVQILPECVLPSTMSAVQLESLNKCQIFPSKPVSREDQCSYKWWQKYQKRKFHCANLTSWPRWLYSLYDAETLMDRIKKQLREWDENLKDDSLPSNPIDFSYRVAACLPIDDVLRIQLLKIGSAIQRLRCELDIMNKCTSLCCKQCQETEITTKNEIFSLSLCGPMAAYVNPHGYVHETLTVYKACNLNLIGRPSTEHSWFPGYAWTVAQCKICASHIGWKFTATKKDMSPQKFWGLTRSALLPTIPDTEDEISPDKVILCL
Target sequence in this assay (Q9UM73 19-1620 limits assumed): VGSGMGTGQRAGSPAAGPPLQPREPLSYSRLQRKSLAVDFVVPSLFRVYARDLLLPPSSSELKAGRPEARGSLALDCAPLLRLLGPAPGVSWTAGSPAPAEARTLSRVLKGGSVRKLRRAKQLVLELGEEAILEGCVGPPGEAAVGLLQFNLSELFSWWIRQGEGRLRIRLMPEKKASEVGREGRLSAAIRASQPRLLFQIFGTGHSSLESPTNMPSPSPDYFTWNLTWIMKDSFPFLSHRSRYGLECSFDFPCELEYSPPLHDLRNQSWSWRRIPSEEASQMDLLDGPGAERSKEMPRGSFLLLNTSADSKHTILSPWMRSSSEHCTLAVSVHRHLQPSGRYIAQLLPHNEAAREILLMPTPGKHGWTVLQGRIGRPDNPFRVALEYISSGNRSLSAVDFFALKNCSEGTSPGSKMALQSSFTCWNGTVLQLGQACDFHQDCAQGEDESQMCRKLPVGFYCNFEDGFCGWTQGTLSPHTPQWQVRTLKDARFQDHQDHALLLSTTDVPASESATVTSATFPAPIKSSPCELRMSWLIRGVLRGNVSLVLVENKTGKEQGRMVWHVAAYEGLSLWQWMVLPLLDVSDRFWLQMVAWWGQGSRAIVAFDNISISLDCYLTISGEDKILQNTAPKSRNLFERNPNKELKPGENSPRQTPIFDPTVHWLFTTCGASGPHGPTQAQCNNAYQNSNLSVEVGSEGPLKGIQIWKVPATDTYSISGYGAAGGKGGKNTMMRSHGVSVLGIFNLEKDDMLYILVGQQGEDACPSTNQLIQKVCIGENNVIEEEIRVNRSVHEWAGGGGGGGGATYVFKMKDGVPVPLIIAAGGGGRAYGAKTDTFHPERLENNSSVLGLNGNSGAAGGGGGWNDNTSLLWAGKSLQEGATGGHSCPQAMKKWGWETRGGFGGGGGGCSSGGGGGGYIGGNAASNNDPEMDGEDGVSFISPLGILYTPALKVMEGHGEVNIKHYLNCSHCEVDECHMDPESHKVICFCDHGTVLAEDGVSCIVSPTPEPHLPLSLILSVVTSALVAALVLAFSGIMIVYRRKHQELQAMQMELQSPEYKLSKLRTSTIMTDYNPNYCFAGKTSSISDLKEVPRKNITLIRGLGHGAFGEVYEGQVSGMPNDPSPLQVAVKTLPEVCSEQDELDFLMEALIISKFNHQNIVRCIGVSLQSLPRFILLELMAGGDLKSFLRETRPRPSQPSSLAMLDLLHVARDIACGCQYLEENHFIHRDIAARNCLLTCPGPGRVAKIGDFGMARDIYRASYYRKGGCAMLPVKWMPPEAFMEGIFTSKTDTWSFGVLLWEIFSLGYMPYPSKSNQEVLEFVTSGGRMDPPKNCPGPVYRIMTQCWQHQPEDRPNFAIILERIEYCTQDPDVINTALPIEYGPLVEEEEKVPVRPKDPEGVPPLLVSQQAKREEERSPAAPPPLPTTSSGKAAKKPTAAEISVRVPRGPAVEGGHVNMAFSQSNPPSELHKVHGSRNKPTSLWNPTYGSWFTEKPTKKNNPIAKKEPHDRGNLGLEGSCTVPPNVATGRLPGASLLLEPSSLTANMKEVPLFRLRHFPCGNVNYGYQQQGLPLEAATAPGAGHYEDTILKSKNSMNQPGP

[3] = Toxicity in rat at 10 mg/kg, po assessed as adverse effect; format: organism-based; conditions: in vivo
[4] = target: T1, Protein cereblon/ALK tyrosine kinase receptor; test: Protac activity at CRBN/ALK in human SR cells assessed as protein abundance at 0.05 nM by Western blot analysis (reference value: 1); format: cell-based
Target sequence in this assay (Q96SW2 whole entry partner): as the sequence (Q96SW2 whole entry partner) above
Target sequence in this assay (Q9UM73 19-1620 limits assumed): as the sequence (Q9UM73 19-1620 limits assumed) above

[5] = Cmax in rat at 2 mg/kg, ip; format: ADME, organism-based; design: route intraperitoneal, dose 2 mg/kg; conditions: in vivo
[6] = target: T1, Protein cereblon/ALK tyrosine kinase receptor; test: Protac activity at CRBN/ALK in human SR cells assessed as protein abundance at 50 nM by Western blot analysis (reference value: 1); format: cell-based
Target sequence in this assay (Q96SW2 whole entry partner): as the sequence (Q96SW2 whole entry partner) above
Target sequence in this assay (Q9UM73 19-1620 limits assumed): as the sequence (Q9UM73 19-1620 limits assumed) above

SR [7] = test: Induction of cell cycle arrest in human SR cells assessed as increase in accumulation at G1/S phase at 100 nM incubated for 24 hrs; format: functional, cell-based
[8] = target: T1, Protein cereblon/ALK tyrosine kinase receptor; test: Protac activity at CRBN/ALK in human SR cells assessed as protein abundance at 500 nM by Western blot analysis (reference value: 1); format: cell-based
Target sequence in this assay (Q96SW2 whole entry partner): as the sequence (Q96SW2 whole entry partner) above
Target sequence in this assay (Q9UM73 19-1620 limits assumed): as the sequence (Q9UM73 19-1620 limits assumed) above

[9] = target: T1, Protein cereblon/ALK tyrosine kinase receptor; test: Protac activity at CRBN/ALK in human SR cells assessed as increase in ALK degradation at 50 nM in presence of MLN4924/MG132 by Western blot analysis; format: cell-based
Target sequence in this assay (Q96SW2 whole entry partner): as the sequence (Q96SW2 whole entry partner) above
Target sequence in this assay (Q9UM73 19-1620 limits assumed): as the sequence (Q9UM73 19-1620 limits assumed) above

SR [10] = test: Potency index, ratio of ceritinib IC50 to test compound IC50 for antiproliferative activity against ALK positive human SR cells; format: functional
SR [11] = test: Induction of cell cycle arrest in human SR cells assessed as increase in accumulation at S phase at 100 nM incubated for 24 hrs; format: functional, cell-based
[12] = Stability in liver microsomes (unknown origin); format: ADME, Microsome
[13] = target: T2, ALK tyrosine kinase receptor (Homo sapiens, UniProt Q9UM73); test: Inhibition of ALK (unknown origin)
Target sequence in this assay (Q9UM73 whole entry): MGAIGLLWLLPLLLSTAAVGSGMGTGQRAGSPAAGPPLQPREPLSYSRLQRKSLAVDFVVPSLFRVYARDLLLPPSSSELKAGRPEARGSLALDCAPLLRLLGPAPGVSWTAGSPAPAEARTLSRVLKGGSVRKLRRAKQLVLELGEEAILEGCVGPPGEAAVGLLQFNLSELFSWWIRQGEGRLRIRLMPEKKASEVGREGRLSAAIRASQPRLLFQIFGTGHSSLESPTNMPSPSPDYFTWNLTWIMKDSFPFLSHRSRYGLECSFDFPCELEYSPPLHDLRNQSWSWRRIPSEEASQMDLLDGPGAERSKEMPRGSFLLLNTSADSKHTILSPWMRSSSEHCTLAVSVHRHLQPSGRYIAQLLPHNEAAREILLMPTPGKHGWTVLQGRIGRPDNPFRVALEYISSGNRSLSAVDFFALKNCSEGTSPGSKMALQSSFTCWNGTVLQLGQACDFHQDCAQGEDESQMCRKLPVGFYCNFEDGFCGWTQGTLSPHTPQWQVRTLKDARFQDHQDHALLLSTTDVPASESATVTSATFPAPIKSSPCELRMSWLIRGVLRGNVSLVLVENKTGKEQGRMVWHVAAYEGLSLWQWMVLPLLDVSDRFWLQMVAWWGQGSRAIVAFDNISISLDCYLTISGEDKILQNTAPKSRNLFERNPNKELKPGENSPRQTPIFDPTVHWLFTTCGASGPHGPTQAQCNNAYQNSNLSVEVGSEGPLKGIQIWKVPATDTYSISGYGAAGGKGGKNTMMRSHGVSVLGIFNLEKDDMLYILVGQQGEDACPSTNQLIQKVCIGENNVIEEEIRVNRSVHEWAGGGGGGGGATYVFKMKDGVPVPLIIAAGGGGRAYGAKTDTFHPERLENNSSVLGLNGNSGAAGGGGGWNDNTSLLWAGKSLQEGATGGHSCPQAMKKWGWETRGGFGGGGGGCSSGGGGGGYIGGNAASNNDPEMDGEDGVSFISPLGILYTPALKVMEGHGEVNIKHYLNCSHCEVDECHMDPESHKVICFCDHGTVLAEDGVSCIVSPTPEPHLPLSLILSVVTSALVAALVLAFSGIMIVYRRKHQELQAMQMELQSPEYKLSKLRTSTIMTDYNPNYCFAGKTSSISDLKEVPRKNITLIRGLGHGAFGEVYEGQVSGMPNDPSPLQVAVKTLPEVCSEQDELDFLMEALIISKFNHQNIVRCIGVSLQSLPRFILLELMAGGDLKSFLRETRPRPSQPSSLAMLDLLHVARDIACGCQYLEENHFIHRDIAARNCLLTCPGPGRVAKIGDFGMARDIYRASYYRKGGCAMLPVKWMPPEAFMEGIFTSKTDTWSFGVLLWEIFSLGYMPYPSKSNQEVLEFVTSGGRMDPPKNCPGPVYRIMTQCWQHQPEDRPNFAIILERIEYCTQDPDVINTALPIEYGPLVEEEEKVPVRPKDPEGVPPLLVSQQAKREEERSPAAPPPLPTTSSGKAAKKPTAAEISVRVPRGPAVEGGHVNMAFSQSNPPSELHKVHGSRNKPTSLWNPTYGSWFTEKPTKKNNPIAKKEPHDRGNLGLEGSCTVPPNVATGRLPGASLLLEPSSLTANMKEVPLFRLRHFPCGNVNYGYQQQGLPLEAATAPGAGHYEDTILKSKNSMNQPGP

[14] = target: T2, ALK tyrosine kinase receptor; test: Inhibition of ALK in human SR cells assessed as reduction in STAT3 phosphorylation at 50 nM; format: cell-based
Target sequence in this assay (Q9UM73 19-1620 limits assumed): as the sequence (Q9UM73 19-1620 limits assumed) above

[15] = target: T1, Protein cereblon/ALK tyrosine kinase receptor; test: Protac activity at CRBN/ALK in human SR cells assessed as increase in ALK degradation at 500 nM by Western blot analysis; format: cell-based
Target sequence in this assay (Q96SW2 whole entry partner): as the sequence (Q96SW2 whole entry partner) above
Target sequence in this assay (Q9UM73 19-1620 limits assumed): as the sequence (Q9UM73 19-1620 limits assumed) above

[16] = Plasma concentration in rat at 10 mg/kg, po measured after 4 hrs; format: ADME, organism-based
[17] = target: T1, Protein cereblon/ALK tyrosine kinase receptor; test: Protac activity at CRBN/ALK in human SR cells assessed as protein abundance at 5 nM by Western blot analysis (reference value: 1); format: cell-based
SR [18] = test: Antiproliferative activity against ALK positive human SR cells; format: functional, cell-based
[19] = target: T2, ALK tyrosine kinase receptor; test: Inhibition of ALK phosphorylation in human SR cells at 0.5 nM; format: cell-based
Target sequence in this assay (Q9UM73 19-1620 limits assumed): as above

[20] = target: T1, Protein cereblon/ALK tyrosine kinase receptor; test: Protac activity at CRBN/ALK in human SR cells assessed as induction of ALK degradation by Western blot analysis; format: cell-based
Target sequence in this assay (Q9UM73 whole entry): as the sequence (Q9UM73 whole entry) above
Target sequence in this assay (Q96SW2 whole entry): as the sequence (Q96SW2 whole entry partner) above

[21] = target: T1, Protein cereblon/ALK tyrosine kinase receptor; test: Protac activity at CRBN/ALK in human SR cells assessed as protein abundance at 0.5 nM by Western blot analysis (reference value: 1); format: cell-based
[22] = target: T1, Protein cereblon/ALK tyrosine kinase receptor; test: Protac activity at CRBN/ALK in human SR cells assessed as increase in ALK degradation at 50 nM in presence of MG132 by Western blot analysis; format: cell-based

- bioavailability [1]: 16%
- Emax [2]: 70.3%
- Activity [4]: 1.03
- Cmax [5]: 83.5 ng/mL
- Activity [6]: 0.37
- Activity [8]: 0.37
- Activity [9]: inactive
- Stabilty [12]: Stable
- IC50 [13]: 3.3 nM
- inhibition [14]: Active
- Activity [15]: Active
- concentration at 4 h [16]: 100 ng/mL
- Activity [17]: 0.56
- inhibition [19]: Active
- DC50 [20]: 3900 nM
- Activity [21]: 0.92
- Activity [22]: inactive
SMILES: CCc1cc2c(cc1N1CCC(N3CCN(CCCC#Cc4cccc5c4CN(C4CCC(=O)NC4=O)C5=O)CC3)CC1)C(C)(C)c1[nH]c3cc(C#N)ccc3c1C2=O (configuration not stated)
- Activity [3]: Non-Toxic
- Activity (SR [7]): Active
- Ratio (SR [10]): 5
- Activity (SR [11]): inactive
- IC50 (SR [18]): 0.9 nM
